Measured values taken from US7842802B2, “Vinorelbine derivatives” (priority 2003, dated 2010).
Like-named read-outs stand apart in the source and are kept apart here.

What was measured:
UACC-257 = assay: NCI 60-cell line growth inhibition assay, UACC-257; assay type: cell-based, human; conditions: Melanoma
From the text: (§1) The following data in Table 4 summarize the growth inhibition properties of several compounds of the present invention against 60-human transformed cell lines.

PC-3 = assay: NCI 60-cell line growth inhibition assay, PC-3; assay type: cell-based, human; conditions: Prostate
From the text: as §1

HL-60(TB) = assay: NCI 60-cell line growth inhibition assay, HL-60(TB); assay type: cell-based, human; conditions: Leukemia
From the text: as §1

SK-MEL-2 = assay: NCI 60-cell line growth inhibition assay, SK-MEL-2; assay type: cell-based, human; conditions: Melanoma
From the text: as §1

RPMI-8226 = assay: NCI 60-cell line growth inhibition assay, RPMI-8226; assay type: cell-based, human
From the text: as §1

HS 578T = assay: NCI 60-cell line growth inhibition assay, HS 578T; assay type: cell-based, human; conditions: Breast
From the text: as §1

HT29 = assay: NCI 60-cell line growth inhibition assay, HT29; assay type: cell-based, human
From the text: as §1

CCRF-CEM = assay: NCI 60-cell line growth inhibition assay, CCRF-CEM; assay type: cell-based, human; conditions: Leukemia
From the text: as §1

SF-295 = assay: NCI 60-cell line growth inhibition assay, SF-295; assay type: cell-based, human; conditions: CNS
From the text: as §1

SR = assay: NCI 60-cell line growth inhibition assay, SR; assay type: cell-based, human; conditions: Leukemia
From the text: as §1

HOP-62 = assay: NCI 60-cell line growth inhibition assay, HOP-62; assay type: cell-based, human; conditions: Non-Small Cell Lung
From the text: as §1

NCI-H522 = assay: NCI 60-cell line growth inhibition assay, NCI-H522; assay type: cell-based, human; conditions: Non-Small Cell Lung
From the text: as §1

SNB-75 = assay: NCI 60-cell line growth inhibition assay, SNB-75; assay type: cell-based, human; conditions: CNS
From the text: as §1

MCF7 = assay: NCI 60-cell line growth inhibition assay, MCF7; assay type: cell-based, human; conditions: Breast
From the text: as §1

[1] = tested on: MCF-7 human breast carcinoma line; assay: MCF-7 GI50 determination (crystal violet); assay type: cell-based; conditions: MCF-7, 4 days of treatment, crystal violet, read-out: MCF-7 Cells GI50
Method: Growth inhibition (GI50) values were measured on the human breast carcinoma line, MCF-7. MCF-7 cells were plated at 2×10^4 cells/well in 96 well plates and grown for 24 hours in drug free media. On day 2, test compounds were added to the plates at 10-fold dilutions. Four days later, cells were fixed by the addition of glutaraldehyde to 0.75%. After 30 min, the fixed cells were extensively rinsed with distilled water and dried at room temperature for one hour. The cells were then stained with a 0.2% crystal violet solution for one hour at room temperature. Unbound stain was removed by ten rinses with tap water and plates were allowed to air dry for 30 min. The crystal violet was then solubilized by the addition of 10% acetic acid for 15 min and quantified by measuring absorbance at 570 nm on a Molecular Devices microplate reader. Growth inhibition was calculated according to the following equation: GI=[…], where the optical density (OD) of the test well after 4 days of treatment was T, the OD of the wells in the control plate on day 0 was T0. Plots of percent growth inhibition versus inhibitor concentration were used to determine the GI50.

NCI-H23 = assay: NCI 60-cell line growth inhibition assay, NCI-H23; assay type: cell-based, human; conditions: Non-Small Cell Lung
From the text: as §1

M14 = assay: NCI 60-cell line growth inhibition assay, M14; assay type: cell-based, human; conditions: Melanoma
From the text: as §1

SF-268 = assay: NCI 60-cell line growth inhibition assay, SF-268; assay type: cell-based, human; conditions: CNS
From the text: as §1

RXF 393 = assay: NCI 60-cell line growth inhibition assay, RXF 393; assay type: cell-based, human; conditions: Renal
From the text: as §1

K-562 = assay: NCI 60-cell line growth inhibition assay, K-562; assay type: cell-based, human
From the text: as §1

OVCAR-8 = assay: NCI 60-cell line growth inhibition assay, OVCAR-8; assay type: cell-based, human; conditions: Ovarian
From the text: as §1

UACC-62 = assay: NCI 60-cell line growth inhibition assay, UACC-62; assay type: cell-based, human; conditions: Melanoma
From the text: as §1

[2] = tested on: HeLa S-3 human cervical carcinoma cell line; assay: HeLa GI50 determination (SRB); assay type: cell-based; conditions: HeLa S-3, 2 days of treatment, SRB, read-out: HeLa Cells GI50
Method: Growth inhibition (GI50) values were measured on the human cervical carcinoma cell line, HeLa S-3, which were selected for growth on plastic. The HeLa cell assay was based on the description of Skehan et al., J. Natl. Cancer Inst., 82:1107-12 (1990), which is hereby incorporated by reference in its entirety. HeLa cells were plated at 2×10^4 cells/well in 96 well plates. One day later, a control plate was fixed by the addition of TCA to 5%. After five rinses with tap water, the plate was air-dried and stored at 4° C. Test compounds were added to the remaining plates at 10-fold dilutions. Two days later, all plates were fixed as described above. Cells were then stained by the addition of 100 μL per well of 0.4% sulforhodamine B (SRB) in 1% acetic acid for 30 min at 4° C. Wells were then quickly rinsed 5× with 1% acetic acid and allowed to air dry. The SRB was then solubilized by the addition of 100 μL per well of unbuffered 10 mM Tris base. Dye was quantified by measuring absorbance at 490 nm on a Molecular Devices microplate reader. Growth inhibition was calculated according to the following equation: GI=100×(T−T0)/(C−T0), where the optical density (OD) of the test well after 2 days of treatment was T, the OD of the wells in the control plate on day 0 was T0 and C was the OD of untreated wells. Plots of percent growth inhibition versus inhibitor concentration were used to determine the GI50.

TK-10 = assay: NCI 60-cell line growth inhibition assay, TK-10; assay type: cell-based, human; conditions: Renal
From the text: as §1

HOP-92 = assay: NCI 60-cell line growth inhibition assay, HOP-92; assay type: cell-based, human; conditions: Non-Small Cell Lung
From the text: as §1

A549/ATCC = assay: NCI 60-cell line growth inhibition assay, A549/ATCC; assay type: cell-based, human; conditions: Non-Small Cell Lung
From the text: as §1

NCI-H226 = assay: NCI 60-cell line growth inhibition assay, NCI-H226; assay type: cell-based, human; conditions: Non-Small Cell Lung
From the text: as §1

IGROV1 = assay: NCI 60-cell line growth inhibition assay, IGROV1; assay type: cell-based, human
From the text: as §1

KM12 = assay: NCI 60-cell line growth inhibition assay, KM12; assay type: cell-based, human; conditions: Colon
From the text: as §1

NCI/ADR-RES = assay: NCI 60-cell line growth inhibition assay, NCI/ADR-RES; assay type: cell-based, human; conditions: Breast
From the text: as §1

SF-539 = assay: NCI 60-cell line growth inhibition assay, SF-539; assay type: cell-based, human; conditions: CNS
From the text: as §1

SW-620 = assay: NCI 60-cell line growth inhibition assay, SW-620; assay type: cell-based, human; conditions: Colon
From the text: as §1

MALME-3M = assay: NCI 60-cell line growth inhibition assay, MALME-3M; assay type: cell-based, human; conditions: Melanoma
From the text: as §1

DU-145 = assay: NCI 60-cell line growth inhibition assay, DU-145; assay type: cell-based, human; conditions: Prostate
From the text: as §1

In the case of 11′-bromovinorelbine [Example 1], the GI50 (UACC-257) is reported as 5730 nM, the GI50 (PC-3) is reported as < 10 nM and the GI50 (HL-60(TB)) is reported as < 10 nM. For the same molecule, the GI50 (SK-MEL-2) was < 10 nM, the GI50 (RPMI-8226) was < 10 nM and the GI50 (RPMI-8226; Leukemia) was < 10 nM. For the same molecule, the GI50 (HS 578T) was 679 nM, the GI50 (HT29; Colon) was < 10 nM and the GI50 (CCRF-CEM) was < 10 nM. For the same molecule, the GI50 (SF-295) was < 10 nM, the GI50 (SR) was > 100000 nM and the GI50 (HOP-62) was < 10 nM. For the same molecule, the GI50 (NCI-H522) was < 10 nM, the GI50 (SNB-75) was 15100 nM and the GI50 (MCF7) was < 10 nM. The GI50 [1] was 3 nM, the GI50 (NCI-H23) was < 10 nM and the GI50 (M14) was < 10 nM. For the same molecule, the GI50 (SF-268) was < 10 nM, the GI50 (RXF 393) was 10300 nM and the GI50 (K-562; Leukemia) was < 10 nM. For the same molecule, the GI50 (OVCAR-8) was < 10 nM, the GI50 (UACC-62) was < 10 nM and the GI50 [2] was 5 nM. The GI50 (TK-10) was < 10 nM, the GI50 (HOP-92) was 1240 nM and the GI50 (A549/ATCC) was < 10 nM. For the same molecule, the GI50 (NCI-H226) was < 10 nM, the GI50 (IGROV1; Ovarian) was < 10 nM and the GI50 (KM12) was < 10 nM. The GI50 (NCI/ADR-RES) was 152 nM, the GI50 (SF-539) was < 10 nM and the GI50 (SW-620) was < 10 nM. The GI50 (MALME-3M) was 53.6 nM and the GI50 (DU-145) was < 10 nM.

For `CCC1=C[C@H]2CN(C1)Cc1c([nH]c3ccc(I)cc13)[C@@](C(=O)OC)(c1cc3c(cc1OC)N(C)[C@H]1[C@@](O)(C(=O)OC)[C@H](OC(C)=O)C4C(CC)=CCN5CC[C@]31[C@H]45)C2` (stereo partly drawn) [Example 2, 11′-iodovinorelbine], the GI50 (UACC-257; Homo sapiens) was 3430 nM, the GI50 (PC-3; Homo sapiens) was 57.3 nM and the GI50 (HL-60(TB); Homo sapiens) was 71 nM. For the same molecule, the GI50 (SK-MEL-2; Homo sapiens) was 1400 nM, the GI50 (RPMI-8226; Homo sapiens, Leukemia) was 16.7 nM and the GI50 (HS 578T; Homo sapiens) was 19.2 nM. It also gave a GI50 (HT29; Homo sapiens, HT-29, Colon) of 10.3 nM, a GI50 (CCRF-CEM; Homo sapiens) of 37.9 nM and a GI50 (SF-295; Homo sapiens) of 27 nM. For the same molecule, the GI50 (SR; Homo sapiens) was 26.1 nM, the GI50 (HOP-62; Homo sapiens) was 37 nM and the GI50 (NCI-H522; Homo sapiens) was < 10 nM. For the same molecule, the GI50 (SNB-75; Homo sapiens) was 40.4 nM, the GI50 (MCF7; Homo sapiens) was 11.3 nM and the GI50 ([1]; Homo sapiens, MCF7, 96 h) was 7 nM. The GI50 (NCI-H23; Homo sapiens) was 52.8 nM, the GI50 (M14; Homo sapiens) was > 100000 nM and the GI50 (SF-268; Homo sapiens) was 78.8 nM. It also gave a GI50 (RXF 393; Homo sapiens) of 60.5 nM, a GI50 (K-562; Homo sapiens, K562, Leukemia) of 12.4 nM and a GI50 (OVCAR-8; Homo sapiens) of 51.7 nM. For the same molecule, the GI50 (UACC-62; Homo sapiens) was 25.6 nM, the GI50 ([2]; Homo sapiens, HeLa S3, 48 h) was 25 nM and the GI50 (TK-10; Homo sapiens) was 298 nM. For the same molecule, the GI50 (HOP-92; Homo sapiens) was 2250 nM, the GI50 (A549/ATCC; Homo sapiens) was 58.6 nM and the GI50 (NCI-H226; Homo sapiens) was 83.3 nM. For the same molecule, the GI50 (IGROV1; Homo sapiens, IGROV-1, Ovarian) was 32.4 nM, the GI50 (KM12; Homo sapiens) was 92.7 nM and the GI50 (NCI/ADR-RES; Homo sapiens) was 5280 nM. It also gave a GI50 (SF-539; Homo sapiens) of 37.9 nM, a GI50 (SW-620; Homo sapiens) of 37.8 nM and a GI50 (MALME-3M; Homo sapiens) of 65 nM. It also gave a GI50 (DU-145; Homo sapiens) of 25.7 nM.
